Test results as given in paper PMC2917589 (Nature chemical biology, 2010).

Columns and labels:
[1] = target: myosin V (S1) 1IQ construct (Gallus gallus, UniProt Q02440); type: binding
[2] = target: myosin V (S1) 6IQ construct (Gallus gallus, UniProt Q02440); type: binding
Sequence of myosin V (S1) 6IQ construct (Q02440 whole entry, looked up): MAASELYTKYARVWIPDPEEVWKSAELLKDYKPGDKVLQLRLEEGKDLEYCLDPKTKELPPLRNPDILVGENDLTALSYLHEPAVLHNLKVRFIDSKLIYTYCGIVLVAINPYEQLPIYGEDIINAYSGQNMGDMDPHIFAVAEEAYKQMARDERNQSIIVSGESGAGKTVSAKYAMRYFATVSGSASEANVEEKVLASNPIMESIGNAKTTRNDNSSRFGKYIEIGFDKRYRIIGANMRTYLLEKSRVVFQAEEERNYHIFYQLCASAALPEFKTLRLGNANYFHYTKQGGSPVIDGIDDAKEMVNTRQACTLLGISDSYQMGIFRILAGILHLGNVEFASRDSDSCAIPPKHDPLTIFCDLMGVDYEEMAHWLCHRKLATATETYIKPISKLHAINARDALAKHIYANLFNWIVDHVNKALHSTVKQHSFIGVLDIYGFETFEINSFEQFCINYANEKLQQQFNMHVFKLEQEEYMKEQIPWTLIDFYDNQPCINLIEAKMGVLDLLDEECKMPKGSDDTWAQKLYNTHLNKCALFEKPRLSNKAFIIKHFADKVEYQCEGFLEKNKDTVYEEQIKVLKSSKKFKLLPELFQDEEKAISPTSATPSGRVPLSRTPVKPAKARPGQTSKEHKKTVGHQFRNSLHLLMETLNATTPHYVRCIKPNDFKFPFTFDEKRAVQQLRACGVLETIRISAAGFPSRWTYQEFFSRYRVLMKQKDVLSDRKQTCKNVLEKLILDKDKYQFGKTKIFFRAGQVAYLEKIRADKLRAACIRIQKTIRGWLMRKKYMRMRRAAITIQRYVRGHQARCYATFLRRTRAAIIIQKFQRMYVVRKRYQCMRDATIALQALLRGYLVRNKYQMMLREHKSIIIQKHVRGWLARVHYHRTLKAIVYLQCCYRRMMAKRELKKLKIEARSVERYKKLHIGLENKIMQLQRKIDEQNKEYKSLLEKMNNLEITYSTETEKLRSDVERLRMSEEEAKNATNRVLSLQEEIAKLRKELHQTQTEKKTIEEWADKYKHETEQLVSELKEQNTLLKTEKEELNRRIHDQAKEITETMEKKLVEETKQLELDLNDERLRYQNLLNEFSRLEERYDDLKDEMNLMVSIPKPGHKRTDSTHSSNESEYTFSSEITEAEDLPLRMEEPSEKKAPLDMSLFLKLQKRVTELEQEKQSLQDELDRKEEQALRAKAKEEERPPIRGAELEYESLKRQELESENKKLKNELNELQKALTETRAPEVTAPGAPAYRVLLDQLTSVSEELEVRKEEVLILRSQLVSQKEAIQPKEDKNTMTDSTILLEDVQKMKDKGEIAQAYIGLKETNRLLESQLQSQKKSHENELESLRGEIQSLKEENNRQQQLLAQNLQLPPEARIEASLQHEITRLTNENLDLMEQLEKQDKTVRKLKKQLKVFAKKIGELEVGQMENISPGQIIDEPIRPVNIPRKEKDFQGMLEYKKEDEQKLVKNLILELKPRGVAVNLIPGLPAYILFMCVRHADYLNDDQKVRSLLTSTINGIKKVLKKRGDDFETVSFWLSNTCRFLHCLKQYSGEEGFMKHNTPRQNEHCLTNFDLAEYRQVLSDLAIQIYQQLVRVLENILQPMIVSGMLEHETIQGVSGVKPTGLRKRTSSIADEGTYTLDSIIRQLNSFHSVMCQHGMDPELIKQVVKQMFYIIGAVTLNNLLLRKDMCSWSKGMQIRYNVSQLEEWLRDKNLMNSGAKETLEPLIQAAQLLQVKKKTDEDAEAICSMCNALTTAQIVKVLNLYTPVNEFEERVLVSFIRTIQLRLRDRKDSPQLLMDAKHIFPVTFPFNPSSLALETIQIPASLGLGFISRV

Sequence of myosin V (S1) 1IQ construct (Q02440 whole entry, looked up): as above

Kd [1]: 2.4 ± 1.7 µM
Kd [2]: ~1 µM
Structure (SMILES): Nc1ncnc2c1ncn2[C@@H]1O[C@H](COP(=O)(O)OP(=O)(O)O)[C@@H](O)[C@H]1O [ADP]
